Assay results published in article PMC9643456, “Matching amino acids membrane preference profile to improve activity of antimicrobial peptides” (Communications Biology, 2022).
In brackets after ≈: the same amount, converted by molar mass. Several values for one entry are separate records, joined by “and”; a condition that tells them apart may be missing. Identical values can stand only once. Square brackets hold non-standard residues; d marks the D form. Ends that are not written are not given here. Peptide text beside a SMILES is read from it.

What was measured:
[1] = system: human red blood cells; test: Hemolytic activity; format: cell-based
Outline: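 Peptides (100 μM down to 0.78 μM) were incubated with 4% final human erythrocytes in PBS for 18 h at 37 °C. Supernatant absorbance at 540 nm after centrifugation was scaled to 1% Triton X-100 (100%) and no peptide (0%); melittin served as positive control; triplicate runs.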

[2] = system: MDR P. aeruginosa; test: microbe, parasite or virus in culture; settings: for MIC in 0.2% albumin and 0.01% AcOH added CLSI standard condition, MDR P. aeruginosa: CAMHB plus 0.2% bovine serum albumin and 0.01% acetic acid, values marked * in Table 2; for Minimum inhibitory concentrations, MDR P. aeruginosa: CLSI broth microdilution, CAMHB with 50 mg/L Ca2+, 10 mg/L Mg2+, 5 × 10^5 CFU/ml, 18 h 37 °C, no visible turbidity, triplicate, strain CCARM 2180
Outline: (§1)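 MIC was read by eye as the lowest peptide concentration leaving no visible turbidity. Peptide and mid-log cells (final 5 × 10^5 CFU/ml) were combined in cation-adjusted Mueller–Hinton broth containing 50 mg/L calcium and 10 mg/L magnesium and incubated 18 h at 37 °C.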

[3] = system: MDR A. baumannii; test: microbe, parasite or virus in culture; settings: for MIC in 0.2% albumin and 0.01% AcOH added CLSI standard condition, MDR A. baumannii: CAMHB plus 0.2% bovine serum albumin and 0.01% acetic acid, values marked * in Table 2; for Minimum inhibitory concentrations, MDR A. baumannii: CLSI broth microdilution, CAMHB with 50 mg/L Ca2+, 10 mg/L Mg2+, 5 × 10^5 CFU/ml, 18 h 37 °C, triplicate, strain ATCC BAA-1605
Outline: as §1

[4] = system: MDR E. faecalis; test: microbe, parasite or virus in culture; settings: for MIC in 0.2% albumin and 0.01% AcOH added CLSI standard condition, MDR E. faecalis: CAMHB plus 0.2% bovine serum albumin and 0.01% acetic acid, values marked * in Table 2; for Minimum inhibitory concentrations, MDR E. faecalis: CLSI broth microdilution, CAMHB with 50 mg/L Ca2+, 10 mg/L Mg2+, 5 × 10^5 CFU/ml, 18 h 37 °C, triplicate, strain ATCC 51575
Outline: as §1

[5] = system: MDR S. aureus; test: microbe, parasite or virus in culture; settings: for MIC in 0.2% albumin and 0.01% AcOH added CLSI standard condition, MDR S. aureus: CAMHB plus 0.2% bovine serum albumin and 0.01% acetic acid, values marked * in Table 2; for Minimum inhibitory concentrations, MDR S. aureus: CLSI broth microdilution, CAMHB with 50 mg/L Ca2+, 10 mg/L Mg2+, 5 × 10^5 CFU/ml, 18 h 37 °C, triplicate, strain KCCM 40510; for MIC at TM potential condition, S. aureus KCCM 40510: bacteria OD 0.1 (5 x 10^7 cfu/ml), CAMHB, 1% DMSO
Outline: as §1

[6] = system: DMPC:DMPG liposomes; test: Isothermal titration calorimetry, peptide-liposome interaction; format: binding; settings: ITC, PBS, 37 °C
Method: Liposomes were prepared using 1,2-dimyristoyl-sn-glycero-3-(phospho-rac-(1-glycerol)) (sodium salt) (DMPG) (Avanti, Alabama, USA); 1,2-dimyristoyl-sn-glycero-3-phosphocholine (DMPC) (Avanti); and cholesterol (Sigma, Darmstadt, Germany) were used. Bacterial membrane mimic DMPC/DMPG (7/3) unilamellar vesicles (LUVs), and mammalian membrane mimic DMPC/cholesterol (10/1) vesicles with 100-nm diameters were prepared using the freeze-thaw and extrusion method. Lipids were mixed and dissolved in methanol in round-bottomed flasks then evaporated and freeze-dried overnight, yielding a thin layer of lipid covering the glass wall. PBS was added to the lipid layer, after which the PBS-lipid layer was vortexed then frozen in liquid nitrogen and thawed in 50 °C water repeatedly until no visible layer remained. LiposoFast Liposome Factory Basic unit with stabilizer (Avestin, Ottawa, Canada) was then used to extrude the liposomes 50 times through a polycarbonate membrane filter (pore diameter, 100 nm; filter diameter, 0.75 inches) (Avestin). For circular dichroism, isothermal titration calorimetry, tryptophan fluorescence, and dynamic light scattering experiments, liposomes were reconstructed and resuspended in PBS (Welgene Inc, Gyeongsangbuk-do, Korea).
PC/PG liposome stock solutions and peptide solutions were diluted in PBS and degassed for 30 min. Peptide solutions (2 ml, 40 μM) were then loaded into a VP-ITC MicroCalorimeter (MicroCal, Northampton, USA). Liposome samples (600 μl, 2000 μM) were injected into the VP-ITC using a syringe. Measurement parameters were as follows: cell temperature, 37 °C; total injections, 30; reference power, 10; initial delay, 300; stirring speed, 300; edit mode, 10.0/12.0/200/2. Liposome solution (10 μl) was injected into the peptide solution 30 times. Each experiment was performed in duplicate. The results were calculated using MicroCal analysis.

Row | Compound | Hemolysis percent, 25 μM ([1]; red cells of human, 18 h, 25) | Hemolysis percent, 50 μM ([1]; red cells of human, 18 h, 50) | Hemolysis percent, 100 μM ([1]; red cells of human, 18 h, 100) | MIC in 0.2% albumin and 0.01% AcOH added CLSI standard condition, MDR P. aeruginosa [2] | Minimum inhibitory concentrations, MDR P. aeruginosa [2] | MIC in 0.2% albumin and 0.01% AcOH added CLSI standard condition, MDR A. baumannii [3] | Minimum inhibitory concentrations, MDR A. baumannii [3] | MIC in 0.2% albumin and 0.01% AcOH added CLSI standard condition, MDR E. faecalis [4] | Minimum inhibitory concentrations, MDR E. faecalis [4] | MIC in 0.2% albumin and 0.01% AcOH added CLSI standard condition, MDR S. aureus [5] | Minimum inhibitory concentrations, MDR S. aureus [5] | Increase of MIC when the S. aureus concentration was increased 200-fold [5] | ΔS ([6]; 2nd run) | MIC at TM potential condition, S. aureus KCCM 40510 [5] | also measured
1 | WLVWIWRRR-NH2 [LWCopW29] | 0.84 ±0.06% | 5.15 ±0.15% | 13.65 ±0.74% | 20 µM | > 20 µM | 0.31 µM | 1.25 µM | 1.25 µM | 5 µM | 1.25 µM | 5 µM | twofold | 19.4 cal/moldeg |  | ΔS ([6]; 1st run): 19.4 cal/moldeg
2 | CC[C@@H](C)[C@@H](NC(=O)[C@@H](Cc1c[nH]c2ccccc12)NC(=O)[C@H](NC(=O)[C@@H](CC(C)C)NC(=O)[C@H](N)Cc1c[nH]c2ccccc12)C(C)C)C(=O)N[C@H](Cc1c[nH]c2ccccc12)C(=O)N[C@H](CCCNC(=N)N)C(=O)N[C@H](CCCNC(=N)N)C(=O)N[C@H](CCCNC(=N)N)C(N)=O [WCopW29] (H-[dW][dL][dV][dW][dI][dW][dR][dR][dR]-NH2) |  |  |  | 5 µM |  |  |  | 0.31 µM | 1.25 µM (≈ 1.71 µg/mL) | 0.31 µM | 1.25 µM (≈ 1.71 µg/mL) | twofold |  | 2 µM (≈ 2.74 µg/mL) | MIC at different cfu/ml, MDR P. aeruginosa ([2]; 2 × 10^8 cfu/ml (x400)): 5 µM (≈ 6.85 µg/mL); MIC at killing kinetics condition, P. aeruginosa CCARM 2180 ([2]; 5 x 10^5 cfu/ml, PBS): 5 µM (≈ 6.85 µg/mL); MIC at different cfu/ml, MDR A. baumannii ([3]; 1 × 10^10 cfu/ml (x2000)): 10 µM (≈ 13.7 µg/mL); MIC at different cfu/ml, MDR A. baumannii ([3]; 2 × 10^8 cfu/ml (x400)): 2.5 µM (≈ 3.42 µg/mL); MIC at killing kinetics condition, A. baumannii ATCC BAA 1605 ([3]; 5 x 10^5 cfu/ml, PBS): 0.63 µM (≈ 0.863 µg/mL); MIC at different cfu/ml, MDR E. faecalis ([4]; 2 × 10^8 cfu/ml (x400)): 2.5 µM (≈ 3.42 µg/mL); MIC at killing kinetics condition, E. faecalis ATCC 51575 ([4]; 5 x 10^5 cfu/ml, PBS): 1.25 µM (≈ 1.71 µg/mL); MIC at different cfu/ml, MDR S. aureus ([5]; 1 × 10^10 cfu/ml (x2000)): 5 µM (≈ 6.85 µg/mL); MIC at different cfu/ml, MDR S. aureus ([5]; 2 × 10^8 cfu/ml (x400)): 2.5 µM (≈ 3.42 µg/mL); MIC at killing kinetics condition, S. aureus KCCM 40510 ([5]; 5 x 10^5 cfu/ml, PBS): 1.25 µM (≈ 1.71 µg/mL); ΔS ([6]; run shown in Fig. 2a or run not numbered): 18.2 cal/mol deg
3 | RLWWRWIVR-NH2 [HLWCopW29-4] | 1.02 ±0.01% | 1.08 ±0.04% | 2.47 ±0.03% | > 20 µM | > 20 µM | 20 µM |  | 20 µM |  | 20 µM |  |  | -23.6 cal/moldeg | > 20 µM | 
4 | CC[C@@H](C)[C@@H](NC(=O)[C@@H](Cc1c[nH]c2ccccc12)NC(=O)[C@@H](CCCNC(=N)N)NC(=O)[C@@H](CCCNC(=N)N)NC(=O)[C@H](N)CCCNC(=N)N)C(=O)N[C@H](Cc1c[nH]c2ccccc12)C(=O)N[C@@H](C(=O)N[C@@H](C(=O)N[C@H](Cc1c[nH]c2ccccc12)C(=O)N[C@H](CCCCN)C(N)=O)[C@H](C)CC)C(C)C [WCopW43] (H-[dR][dR][dR][dW][dI][dW][dV][dI][dW][dK]-NH2) | 1.12 ± 0.20% | 2.22 ± 0.67% | 5.02 ±0.63% |  | 1.25 µM (≈ 1.87 µg/mL) |  | 0.63 µM (≈ 0.944 µg/mL) |  |  |  | 0.63 µM (≈ 0.944 µg/mL) |  |  |  | 
5 | Colistin |  |  |  | ≤ 0.15 µM | 1.25 µM and 0.63 µM | ≤ 0.15 µM |  |  |  |  |  |  |  |  | Hemolysis percent, 25 μM ([1]; peptide 25 μM, 8% human red blood cells in PBS (final 4%), 18 h 37 °C, absorbance 540 nm, 1% Triton X-100 = 100%, triplicate): 0.24 ±0.09%; Hemolysis percent, 50 μM ([1]; peptide 50 μM, 8% human red blood cells in PBS (final 4%), 18 h 37 °C, absorbance 540 nm, 1% Triton X-100 = 100%, triplicate): 0.31%; Hemolysis percent, 100 μM ([1]; peptide 100 μM, 8% human red blood cells in PBS (final 4%), 18 h 37 °C, absorbance 540 nm, 1% Triton X-100 = 100%, triplicate): 0.39 ±0.06%
